According to paper PMC9019904, “AD Informer Set: Chemical tools to facilitate Alzheimer's disease drug discovery” (Alzheimer's & Dementia : Translational Research & Clinical …, 2022):

Legend:
[1] = test system: HMC3 (human microglia) cell line; experiment: pHrodo-myelin phagocytosis/cell viability high content imaging assay: viability (cell count, nuclear area, nuclear intensity); details: 48 hours treatment
How it was run: (§1)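 Viability was read as total cell count per well by high-content imaging, with mean average nuclear intensity per cell profiling apoptosis (rise early, fall late). Compounds were given at 10 μM for 48 h, pHrodo-myelin being added for the final 20 h. Values are means of two points as % untreated control.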

[2] = test system: BV2 (mouse microglia) cell line; experiment: as above; details: 48 hours treatment
How it was run: as §1

[3] = test system: HMC3 (human microglia) cell line; experiment: pHrodo-myelin phagocytosis/cell viability high content imaging assay: phagocytosis signal; type: cell-based
How it was run: (§2)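 High content imaging, roughly 22 hours post pHrodo-myelin addition, recorded phagocytosis signal alongside viability in microglial lines BV2 (mouse) and HMC3 (human). Apoptosis tracked through intensity rise (early) and fall (later) among three extracted measurements.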

[4] = test system: BV2 (mouse microglia) cell line; experiment: as above; type: cell-based
How it was run: as §2

[5] = HMC3, compound 10 uM, pHrodo-myelin
[6] = BV2, compound 10 uM, pHrodo-myelin
[7] = HMC3 cells, 10 uM compound, 48 hours treatment, pHrodo-myelin final 20 hours
[8] = BV2 cells, 10 uM compound, 48 hours treatment, pHrodo-myelin final 20 hours

Row | Compound | 1. Cell count (% control) ([1]; HMC3, compound 10 uM) | 2. Nuclear Area (% Control) ([1]; HMC3, compound 10 uM) | 3. Nuclear DNA Intensity (% control) ([1]; HMC3, compound 10 uM) | 1. Cell count (% control) ([2]; BV2, compound 10 uM) | 2. Nuclear Area (% Control) ([2]; BV2, compound 10 uM) | 3. Nuclear DNA Intensity (% control) ([2]; BV2, compound 10 uM) | 4. Phagocytosis (% control) [3, 5] [% control] | 4. Phagocytosis (% control) [4, 6] [% control] | 1. Cell count (% control) ([1]; HMC3 cells, 10 uM compound) | 2. Nuclear Area (% Control) ([1]; HMC3 cells, 10 uM compound) | 3. Nuclear DNA Intensity (% control) ([1]; HMC3 cells, 10 uM compound) | 1. Cell count (% control) ([2]; BV2 cells, 10 uM compound) | 2. Nuclear Area (% Control) ([2]; BV2 cells, 10 uM compound) | 3. Nuclear DNA Intensity (% control) ([2]; BV2 cells, 10 uM compound) | 4. Phagocytosis (% control) [3, 7] [% control] | 4. Phagocytosis (% control) [4, 8] [% control]
1 | CC1(C)CCC(CN2CCN(c3ccc(C(=O)NS(=O)(=O)c4ccc(NCC5CCOCC5)c([N+](=O)[O-])c4)c(Oc4cnc5[nH]ccc5c4)c3)CC2)=C(c2ccc(Cl)cc2)C1 [UNC10302836A] | 133.1 | 98.6 | 97.8 | 115.0 | 107.1 | 100.7 | 79.7 | 211.1 |  |  |  |  |  |  |  | 
2 | CNC(=O)c1cccc(-c2ccc3c(N4CCOC[C@@H]4C)nc(N4CCOC[C@@H]4C)nc3n2)c1 [UNC10302837A] | 99.5 | 83.5 | 103.3 | 47.4 | 94.2 | 117.6 | 149.5 | 328.3 |  |  |  |  |  |  |  | 
3 | Cc1cc(OCc2nnc(SC3CCCC3)n2-c2cccnc2)ccc1-c1ccc(S(C)(=O)=O)cc1 [UNC10302838A] | 58.3 | 51.1 | 240.9 | 15.0 | 98.1 | 45.6 | 33.5 | 0.0 |  |  |  |  |  |  |  | 
4 | O=C(NC1CCNCC1)c1[nH]ncc1NC(=O)c1c(Cl)cccc1Cl [UNC10302839A] | 70.4 | 131.0 | 97.4 | 4.8 | 121.7 | 82.5 | 183.7 | 18.2 |  |  |  |  |  |  |  | 
5 | O=S(=O)(NC1CCNCC1)c1cc(S(=O)(=O)c2ccccc2)ccc1C(F)(F)F [UNC10302840A] | 108.8 | 103.9 | 95.8 | 104.4 | 105.6 | 95.4 | 90.9 | 189.7 |  |  |  |  |  |  |  | 
6 | COc1cccc2c(NCc3ccccc3)nc(-n3c(N)nc4ccccc43)nc12 [UNC10302841A] |  |  |  |  |  |  |  |  | 55.4 | 78.1 | 92.0 | 33.6 | 129.2 | 62.4 | 0.0406 | 0.00115
7 | O=C(CCl)c1ccccc1Nc1cccc(C(F)(F)F)c1 [UNC10302842A] | 87.6 | 81.7 | 149.6 | 92.3 | 108.5 | 96.7 | 56.6 | 183.6 |  |  |  |  |  |  |  | 
8 | CCn1cc(C(=O)O)c(=O)c2c(N)c(F)c(NC3CCCCC3)cc21 [UNC10302843A] | 0.0 | 0.0 | 0.0 | 99.6 | 97.0 | 118.4 | 67.4 | 121.2 |  |  |  |  |  |  |  | 
9 | Cc1cc(C)nc(NC(=S)N2CCN(Cc3ccc(C(F)(F)F)cc3)CC2)c1 [UNC10302844A] |  |  |  |  |  |  |  |  | 133.1 | 97.8 | 105.3 | 129.8 | 107.6 | 103.9 | 108.4 | 180.4
10 | CCc1cnn2c(NCc3ccc[n+]([O-])c3)cc(N3CCCC[C@H]3CCO)nc12 [UNC10302845A] | 51.6 | 136.2 | 97.0 | 16.3 | 103.8 | 20.9 | 167.0 | 3.5 |  |  |  |  |  |  |  | 
